From paper PMC9668280, “3H-1,2-Benzoxaphosphepine 2-oxides as selective inhibitors of carbonic anhydrase IX and XII” (Journal of Enzyme Inhibition and Medicinal Chemistry, 2022)
Like-named read-outs stand apart in the source and are kept apart here.

Columns and labels:
Assay in all cases: stopped-flow CO2 hydration assay
Type in all cases: biochemical
[1] = biological target: T1, hCA IX (Homo sapiens, UniProt Q16790); conditions: read-out: KI (μM)^a,b / hCA IX
T1 construct: gene CA9; recombinant, obtained in-house
Source text: stopped-flow CO2 hydration assay on hCA IX

[2] = biological target: T2, hCA II (Homo sapiens, UniProt P00918); conditions: CO2 1.7-17 mM, 20 mM HEPES pH 7.4, 20 mM NaClO4, 6 h preincubation at room temperature; read-out: KI (μM)^a,b / hCA I
T2 construct: gene CA2; recombinant, obtained in-house
Source text: stopped-flow CO2 hydration assay on hCA II

[3] = biological target: T3, hCA I (Homo sapiens, UniProt P00915); conditions: read-out: KI (μM)^a,b / hCA I
T3 construct: gene CA1; recombinant, obtained in-house
Source text: stopped-flow CO2 hydration assay on hCA I

[4] = biological target: T4, hCA XII (Homo sapiens, UniProt O43570); conditions: read-out: KI (μM)^a,b / hCA XII
T4 construct: gene CA12; recombinant, obtained in-house
Source text: stopped-flow CO2 hydration assay on hCA XII

[5] = biological target: T2, hCA II; conditions: CO2 […], […] HEPES pH […] NaClO4, […] h preincubation at room temperature; read-out: KI (μM)^a,b / hCA I
[6] = CO2 1.7-17 mM, 20 mM HEPES pH 7.4, 20 mM NaClO4, 6 h preincubation at room temperature
[7] = CO2 […], […] HEPES pH […] NaClO4, […] h preincubation at room temperature

T3 sequence (P00915 2-261): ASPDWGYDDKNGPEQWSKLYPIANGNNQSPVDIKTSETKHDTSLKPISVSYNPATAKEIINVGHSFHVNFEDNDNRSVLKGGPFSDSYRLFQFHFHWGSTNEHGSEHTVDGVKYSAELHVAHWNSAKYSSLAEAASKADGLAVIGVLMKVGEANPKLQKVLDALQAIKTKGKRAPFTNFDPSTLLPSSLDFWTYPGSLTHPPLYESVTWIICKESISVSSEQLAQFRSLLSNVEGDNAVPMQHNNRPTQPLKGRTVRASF
T4 sequence (O43570 25-354 limits assumed): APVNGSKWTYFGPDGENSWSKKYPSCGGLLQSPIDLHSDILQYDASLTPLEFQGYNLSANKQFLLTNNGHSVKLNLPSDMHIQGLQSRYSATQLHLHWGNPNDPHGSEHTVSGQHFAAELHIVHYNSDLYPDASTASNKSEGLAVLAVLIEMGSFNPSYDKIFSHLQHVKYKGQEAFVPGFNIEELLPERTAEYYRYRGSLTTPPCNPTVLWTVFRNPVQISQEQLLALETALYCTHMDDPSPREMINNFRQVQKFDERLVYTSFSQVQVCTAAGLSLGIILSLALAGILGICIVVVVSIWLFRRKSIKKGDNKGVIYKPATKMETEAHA

Compound | Ki [1, 6] | Ki [2] | Ki [3, 6] | Ki [4, 6] | Ki [1, 7] | Ki [5] | Ki [3, 7] | Ki [4, 7]
2-Hydroxy-3H-benzo[f][1,2]oxaphosphepine 2-oxide [7a] | 1.3 µM | > 100 µM | > 100 µM | 0.51 µM |  |  |  | 
CCOP1(=O)CC=Cc2ccccc2O1 (stereo not shown) [6a, 2-Ethoxy-3H-benzo[f][1,2]oxaphosphepine 2-oxide] |  |  |  |  | 0.82 µM | > 100 µM | > 100 µM | 
CCOP1(=O)CC=Cc2cc(I)ccc2O1 (stereo not shown) [6b, 2-Ethoxy-7-iodo-3H-benzo[f][1,2]oxaphosphepine 2-oxide] |  |  |  |  | 4.7 µM | > 100 µM | > 100 µM | 2.4 µM
CCOP1(=O)CC=Cc2cc(Br)ccc2O1 (stereo not shown) [6c, 7-Bromo-2-ethoxy-3H-benzo[f][1,2]oxaphosphepine 2-oxide] |  |  |  |  | 0.76 µM | > 100 µM | > 100 µM | 1.6 µM
CCOP1(=O)CC=Cc2cccc(Br)c2O1 (stereo not shown) [6d, 9-Bromo-2-ethoxy-3H-benzo[f][1,2]oxaphosphepine 2-oxide] |  |  |  |  | 11.3 µM | > 100 µM | > 100 µM | 3.3 µM
CCOP1(=O)CC=Cc2cccc(OC)c2O1 (stereo not shown) [6e, 2-Ethoxy-9-methoxy-3H-benzo[f][1,2]oxaphosphepine 2-oxide] |  |  |  |  | 9 µM | > 100 µM | > 100 µM | 7.4 µM
CCOP1(=O)CC=Cc2cc(Cl)cc(Cl)c2O1 (stereo not shown) [6f, 7,9-Dichloro-2-ethoxy-3H-benzo[f][1,2]oxaphosphepine 2-oxide] |  |  |  |  | 6.1 µM | > 100 µM | > 100 µM | 3.4 µM
CCOP1(=O)CC=Cc2cc([N+](=O)[O-])ccc2O1 (stereo not shown) [6g, 2-Ethoxy-7-nitro-3H-benzo[f][1,2]oxaphosphepine 2-oxide] |  |  |  |  | 3.9 µM | > 100 µM | > 100 µM | 0.95 µM
O=P1(O)CC=Cc2cc(I)ccc2O1 [7b, 2-Hydroxy-7-iodo-3H-benzo[f][1,2]oxaphosphepine 2-oxide] |  |  |  |  | 0.88 µM | > 100 µM | > 100 µM | 0.68 µM
O=P1(O)CC=Cc2cc(Br)ccc2O1 [7c, 7-Bromo-2-hydroxy-3H-benzo[f][1,2]oxaphosphepine 2-oxide] |  |  |  |  | 1 µM | > 100 µM | > 100 µM | 0.96 µM
O=P1(O)CC=Cc2cccc(Br)c2O1 [7d, 9-Bromo-2-hydroxy-3H-benzo[f][1,2]oxaphosphepine 2-oxide] |  |  |  |  | 2.5 µM | > 100 µM | > 100 µM | 1.8 µM
COc1cccc2c1OP(=O)(O)CC=C2 [7e, 2-Hydroxy-9-methoxy-3H-benzo[f][1,2]oxaphosphepine 2-oxide] |  |  |  |  | 1.8 µM | > 100 µM | > 100 µM | 1.2 µM
O=P1(O)CC=Cc2cc(Cl)cc(Cl)c2O1 [7f, 7,9-Dichloro-2-hydroxy-3H-benzo[f][1,2]oxaphosphepine 2-oxide] |  |  |  |  | 0.8 µM | > 100 µM | > 100 µM | 1.7 µM
O=[N+]([O-])c1ccc2c(c1)C=CCP(=O)(O)O2 [7g, 2-Hydroxy-7-nitro-3H-benzo[f][1,2]oxaphosphepine 2-oxide] |  |  |  |  | 0.67 µM | > 100 µM | > 100 µM | 1 µM
